Measured values: patent US20260285850A1, “SUBSTITUTED OXAZOLIDINONES AND IMIDAZOLINONES AS HERBICIDES” (FMC CORPORATION, priority 2023, published 2026)

Legend:
Format in all cases: in vivo
corn (Zea mays) [1] = assay: Test A postemergence application, visual injury rating 0-100; details: 10 days
Procedure, shortened: (§1)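 Directed preemergence spray onto seeded soil or postemergence spray onto 2-10 cm plants (loam plus sand); compound carried in surfactant-containing non-phytotoxic solvent. Injury rated by eye after 10 d greenhouse growth; 0 = no effect, 100 = complete control.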

[2] = tested on: blackgrass (Alopecurus myosuroides); assay: as above; details: 10 days
Procedure, shortened: as §1

[3] = tested on: palmer (palmer amaranth, palmer pigweed, Amaranthus palmeri); assay: as above; details: 10 days
Procedure, shortened: as §1

[4] = tested on: ryegrass, Italian (italian ryegrass, Lolium multiflorum); assay: as above; details: 10 days
Procedure, shortened: as §1

soybean (Glycine max) [5] = assay: as above; details: 10 days
Procedure, shortened: as §1

[6] = tested on: wheat (Triticum aestivum); assay: as above; details: 10 days
Procedure, shortened: as §1

[7] = tested on: green foxtail (Setaria viridis); assay: as above; details: 10 days
Procedure, shortened: as §1

kochia (Bassia scoparia) [8] = assay: as above; details: 10 days
Procedure, shortened: as §1

[9] = tested on: galium (catchweed bedstraw, Galium aparine); assay: as above; details: 10 days
Procedure, shortened: as §1

[10] = tested on: barnyardgrass (Echinochloa crus-galli); assay: as above; details: 10 days
Procedure, shortened: as §1

[11] = tested on: oat, wild (wild oat, Avena fatua); assay: as above; details: 10 days
Procedure, shortened: as §1

[12] = tested on: horseweed (Erigeron canadensis); assay: as above; details: 10 days
Procedure, shortened: as §1

[13] = tested on: ragweed (common ragweed, Ambrosia artemisiifolia); assay: as above; details: 10 days
Procedure, shortened: as §1

corn (Zea mays) [14] = assay: Test A preemergence soil spray, visual injury rating 0-100; details: 10 days, 0 = no effect, 100 = complete control
Procedure, shortened: as §1

[15] = tested on: blackgrass (Alopecurus myosuroides); assay: as above; details: 10 days, 0 = no effect, 100 = complete control
Procedure, shortened: as §1

[16] = tested on: palmer (palmer amaranth, palmer pigweed, Amaranthus palmeri); assay: as above; details: 10 days, 0 = no effect, 100 = complete control
Procedure, shortened: as §1

[17] = tested on: ryegrass, Italian (italian ryegrass, Lolium multiflorum); assay: as above; details: 10 days, 0 = no effect, 100 = complete control
Procedure, shortened: as §1

soybean (Glycine max) [18] = assay: as above; details: 10 days, 0 = no effect, 100 = complete control
Procedure, shortened: as §1

[19] = tested on: wheat (Triticum aestivum); assay: as above; details: 10 days, 0 = no effect, 100 = complete control
Procedure, shortened: as §1

[20] = tested on: green foxtail (Setaria viridis); assay: as above; details: 10 days, 0 = no effect, 100 = complete control
Procedure, shortened: as §1

kochia (Bassia scoparia) [21] = assay: as above; details: 10 days, 0 = no effect, 100 = complete control
Procedure, shortened: as §1

[22] = tested on: barnyardgrass (Echinochloa crus-galli); assay: as above; details: 10 days, 0 = no effect, 100 = complete control
Procedure, shortened: as §1

[23] = tested on: oat, wild (wild oat, Avena fatua); assay: as above; details: 10 days, 0 = no effect, 100 = complete control
Procedure, shortened: as §1

[24] = tested on: ragweed (common ragweed, Ambrosia artemisiifolia); assay: as above; details: 10 days, 0 = no effect, 100 = complete control
Procedure, shortened: as §1

[25] = tested on: sedge, umbrella (small-flower umbrella sedge, Cyperus difformis); assay: Test B flooded paddy test, visual plant response rating 0-100; details: 250 g ai/ha, Flood, applied to paddy water, evaluated after 13 days
Procedure, shortened: (§2)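 Treatment occurs at the 2-leaf stage by adding compound to floodwater standing 3 cm above the soil, a level kept for the whole test. Plants stay in the greenhouse 13 days before visual comparison with controls.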

[26] = tested on: barnyardgrass (Echinochloa crusgalli); assay: as above; details: 250 g ai/ha, Flood, applied to paddy water, evaluated after 13 days
Procedure, shortened: as §2

[27] = tested on: ducksalad (Heteranthera limosa); assay: as above; details: 250 g ai/ha, Flood, applied to paddy water, evaluated after 13 days
Procedure, shortened: as §2

rice (Oryza sativa) = assay: as above; details: 250 g ai/ha, Flood, applied to paddy water, evaluated after 13 days
Procedure, shortened: as §2

[28] = 31 g ai/ha, postemergence, 0 = no effect, 100 = complete control
[29] = Postemergence, 125 g ai/ha, 0 is no effect, 100 is complete control

CC1(C(=O)NC2CC=C(C(=O)OCC(F)(F)F)C2)CN(c2cc(F)cc(F)c2)C(=O)O1 (single isomer, unassigned) [Compound 24]
Corn plant response rating (0-100) (corn (Zea mays) [1]; [28]): 10 | Corn plant response rating (0 to 100 scale) (corn (Zea mays) [1]; [29]): 90 | Blackgrass plant response rating (0-100) [2, 28]: 0 | Blackgrass plant response rating (0 to 100 scale) [2, 29]: 60 | Amaranth, Palmer plant response rating (0-100) [3, 28]: 0 | Amaranth, Palmer / Pigweed, Palmer plant response rating (0 to 100 scale) [3, 29]: 40 | Ryegrass, Italian plant response rating (0-100) [4, 28]: 40 | Ryegrass, Italian plant response rating (0 to 100 scale) [4, 29]: 60 | Soybean plant response rating (0-100) (soybean (Glycine max) [5]; [28]): 0 | Soybean plant response rating (0 to 100 scale) (soybean (Glycine max) [5]; [29]): 60 | Wheat plant response rating (0-100) [6, 28]: 30 | Wheat plant response rating (0 to 100 scale) [6, 29]: 90 | Foxtail, Green plant response rating (0-100) [7, 28]: 0 | Foxtail, Green plant response rating (0 to 100 scale) [7, 29]: 60 | Kochia plant response rating (0-100) (kochia (Bassia scoparia) [8]; [28]): 20 | Kochia plant response rating (0 to 100 scale) (kochia (Bassia scoparia) [8]; [29]): 90 | Galium plant response rating (0-100) [9, 28]: 40 | Galium plant response rating (0 to 100 scale) [9, 29]: 80 | Barnyardgrass plant response rating (0-100) [10, 28]: 20 | Barnyardgrass plant response rating (0 to 100 scale) [10, 29]: 80 | Oat, Wild plant response rating (0-100) [11, 28]: 10 | Oat, Wild plant response rating (0 to 100 scale) [11, 29]: 60 | Horseweed plant response rating (0-100) [12, 28]: 20 | Horseweed plant response rating (0 to 100 scale) [12, 29]: 10 | Ragweed plant response rating (0-100) [13, 28]: 20 | Ragweed plant response rating (0 to 100 scale) [13, 29]: 30 | Corn plant response rating (0-100) (corn (Zea mays) [14]; 31 g ai/ha): 0 | Corn plant response rating (0 to 100 scale) (corn (Zea mays) [14]; 125 g ai/ha): 0 | Blackgrass plant response rating (0-100) ([15]; 31 g ai/ha): 0 | Blackgrass plant response rating (0 to 100 scale) ([15]; 125 g ai/ha): 0 | Amaranth, Palmer plant response rating (0-100) ([16]; 31 g ai/ha): 30 | Amaranth, Palmer plant response rating (0 to 100 scale) ([16]; 125 g ai/ha): 70 | Ryegrass, Italian plant response rating (0-100) ([17]; 31 g ai/ha): 0 | Ryegrass, Italian plant response rating (0 to 100 scale) ([17]; 125 g ai/ha): 0 | Soybean plant response rating (0-100) (soybean (Glycine max) [18]; 31 g ai/ha): 0 | Soybean plant response rating (0 to 100 scale) (soybean (Glycine max) [18]; 125 g ai/ha): 10 | Wheat plant response rating (0-100) ([19]; 31 g ai/ha): 0 | Wheat plant response rating (0 to 100 scale) ([19]; 125 g ai/ha): 70 | Foxtail, Green plant response rating (0-100) ([20]; 31 g ai/ha): 50 | Foxtail, Green plant response rating (0 to 100 scale) ([20]; 125 g ai/ha): 50 | Kochia plant response rating (0-100) (kochia (Bassia scoparia) [21]; 31 g ai/ha): 0 | Kochia plant response rating (0 to 100 scale) (kochia (Bassia scoparia) [21]; 125 g ai/ha): 0 | Barnyardgrass plant response rating (0-100) ([22]; 31 g ai/ha): 10 | Barnyardgrass plant response rating (0 to 100 scale) ([22]; 125 g ai/ha): 10 | Oat, Wild plant response rating (0-100) ([23]; 31 g ai/ha): 0 | Oat, Wild plant response rating (0 to 100 scale) ([23]; 125 g ai/ha): 20 | Ragweed plant response rating (0-100) ([24]; 31 g ai/ha): 0 | Ragweed plant response rating (0 to 100 scale) ([24]; 125 g ai/ha): 10 | Plant response rating, Sedge, Umbrella (0 to 100 scale, 0 is no effect and 100 is complete control) [25]: 0 | Plant response rating, Barnyardgrass (0 to 100 scale, 0 is no effect and 100 is complete control) [26]: 0 | Plant response rating, Ducksalad (0 to 100 scale, 0 is no effect and 100 is complete control) [27]: 0 | Plant response rating, Rice (0 to 100 scale, 0 is no effect and 100 is complete control) (rice (Oryza sativa)): 0
